Here are results for three molecules from patent US20240018105A1, “TROPOLONE DERIVATIVES AND TAUTOMERS THEREOF FOR IRON REGULATION IN ANIMALS” (Kinesid Therapeutics, Inc., priority 2019, published 2024).

A word on the half-life: it is how long it takes for the measured level to halve. What is called microsomal CLint is a measure of how fast metabolising enzymes remove a compound, apart from limits set by blood flow. A high value points to faster metabolism. Broadly, the AUC(0-t) is the area under the concentration-time curve up to a stated or last time point. High values mean high exposure, low ones low exposure. Broadly, the Cmax is the highest concentration seen after dosing.

The nature of data set [1]: Ligand facilitated Fe(III) efflux from liposomes. The following applies: 10 uM ligand concentration; Table 1. The procedure, abridged:
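POPC:cholesterol liposomes loaded with Fe(III)-citrate (pH 7.0), used at 1 mM phosphorus with 1 mM ferrozine outside. Ligand at 40–1.25 μM final, in triplicate; absorbance at 562 nm read every 60 s for 120 min. Efflux rate k from single-phase association fit, averaged over triplicates.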

The subject of data set [2] is DMT1-deficient Caco-2 cells. The data set is described as follows: shDMT1-Caco2 55Fe transport assay. It is filed as cell-based. The following applies: Caco-2. The procedure, abridged:
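Transwell-differentiated (21–28 days) shDMT1 Caco-2 monolayers; apical serum-free DMEM/MES pH 6.5 with 200 nM 55Fe(III) plus compound, basolateral DMEM/HEPES/2% BSA pH 7.4, 37 °C. Basolateral 55Fe counted by scintillation; CPM over DMSO gives fc, and at 4 h fc at 3 µM is divided by hinokitiol's fc at 3 µM.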
Background: Caco-2 cells form a polarised layer with tight junctions and transporters.

A short description of data set [3]: Human liver microsomal stability assay. It is filed as in vitro ADME. The following applies: human, microsomes. An excerpt: (§1) Compounds of the present disclosure were further evaluated in standard in vitro and in vivo Absorption, Distribution, Metabolism, Excretion (ADME) and Drug Metabolism and Pharmacokinetics (DMPK) assays to assess drug profiles important for further drug development.
(§2) Such assessments included human and mouse liver microsomal stability assays as well as 6-hour mouse PK studies.

Data set [4] is described as follows: Mouse liver microsomal stability assay. It is filed as in vitro ADME. Particulars: mouse, microsomes.
Text: as §1, §2
(Liver microsomes are a subcellular fraction often used to study metabolism.)

The nature of a further data set: Mouse 6-hour PK study. The following applies: in vivo.
Text: as §1, §2

As for `Cc1c(F)cncc1-c1ccc([O-])c(=O)cc1.[Na+]` [Ex.23, sodium 4-(5-fluoro-4-methylpyridin-3-yl)-7-oxocyclohepta-1,3,5-trien-1-olate], the “Liposome Fe transport kefflux at 10 10 μM” value in data set [1] is given as 10-25. Also, the “Caco2 shDMT1 transport FC @ 3 μM, 4h” value in data set [2] is on record as 0.01-0.5. In data set [3], this molecule showed a half-life of over 2 h and an intrinsic metabolic clearance (microsomal CLint) of under 11.6 µL/min/mg. Moreover, in data set [4], the half-life is over 2 h and the microsomal CLint was under 11.6 µL/min/mg. For the same molecule, in “Mouse 6-hour PK study”, the exposure AUC(0-t) is over 20000 ng·h/mL, the Cmax was 5000 to 20000 ng/mL, the half-life was in the range of 1.25 to 4.99 h and the “mouse 6-hour PK properties compared to hinokitiol” value is “one or more improved mouse 6-hour PK properties compared to hinokitiol”.

For `O=c1cccc(-c2cnc(C3CC3)nc2)cc1O` [Ex.37], the “Liposome Fe transport kefflux at 10 10 μM” value in data set [1] was 5-7.5. Besides, in data set [2], the “Caco2 shDMT1 transport FC @ 3 μM, 4h” value was 0.01-0.5. In data set [3], this molecule registered a half-life of over 2 h and an intrinsic clearance (microsomal CLint) of under 11.6 µL/min/mg. For the same molecule, in data set [4], the half-life was over 2 h and the microsomal CLint is under 11.6 µL/min/mg. In the data set “Mouse 6-hour PK study”, the AUC(0-t) was 1500 to 5000 ng·h/mL, the Cmax fell in the range of 500 to 1500 ng/mL, the half-life was in the range of 1.25 to 4.99 h and the “mouse 6-hour PK properties compared to hinokitiol” value is “one or more improved mouse 6-hour PK properties compared to hinokitiol”.

On to `Cc1ncc(-c2cccc(=O)c(O)c2)cn1` [Ex.31, 2-hydroxy-4-(2-methylpyrimidin-5-yl)cyclohepta-2,4,6-trien-1-one], for which, in data set [1], the “Liposome Fe transport kefflux at 10 10 μM” value is given as 0.1-5. The “Caco2 shDMT1 transport FC @ 3 μM, 4h” value in data set [2] is 0.01-0.5. Besides, in data set [3], the half-life was over 2 h and the microsomal CLint was under 11.6 µL/min/mg. In data set [4], this molecule showed a half-life of over 2 h and an intrinsic metabolic clearance (microsomal CLint) of under 11.6 µL/min/mg. For the same molecule, in the data set “Mouse 6-hour PK study”, the area under the curve AUC(0-t) fell in the range of 1500 to 5000 ng·h/mL, the maximum concentration (Cmax) is 1500 to 5000 ng/mL, the half-life lay in the range of 1.25 to 4.99 h and the “mouse 6-hour PK properties compared to hinokitiol” value is on record as “one or more improved mouse 6-hour PK properties compared to hinokitiol”.
